Source: PMC9912809 (Inorganic chemistry, 2022)
Where two headings read alike, the source gives them in different places. One block for each molecule: values may come before it.

Key:
[1] = target: T1, Recombinant human glyoxalase I (GLO1) (Homo sapiens, UniProt Q04760); assay: GLO1 inhibition assay; format: biochemical
T1 sequence (Q04760 2-184 limits assumed): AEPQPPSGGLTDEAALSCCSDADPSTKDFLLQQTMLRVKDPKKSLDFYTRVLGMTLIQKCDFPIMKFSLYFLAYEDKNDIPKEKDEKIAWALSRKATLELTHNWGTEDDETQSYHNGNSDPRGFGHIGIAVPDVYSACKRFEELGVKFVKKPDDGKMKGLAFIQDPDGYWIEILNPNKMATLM

[2] = target: Human recombinant MMP-2 catalytic domain (Homo sapiens, UniProt P08253); assay: MMP-2 fluorogenic substrate inhibition assay; details: for Percent inhibition MMP-2: SD of triplicate in parentheses
Sequence of Human recombinant MMP-2 catalytic domain (P08253 110-452 limits assumed): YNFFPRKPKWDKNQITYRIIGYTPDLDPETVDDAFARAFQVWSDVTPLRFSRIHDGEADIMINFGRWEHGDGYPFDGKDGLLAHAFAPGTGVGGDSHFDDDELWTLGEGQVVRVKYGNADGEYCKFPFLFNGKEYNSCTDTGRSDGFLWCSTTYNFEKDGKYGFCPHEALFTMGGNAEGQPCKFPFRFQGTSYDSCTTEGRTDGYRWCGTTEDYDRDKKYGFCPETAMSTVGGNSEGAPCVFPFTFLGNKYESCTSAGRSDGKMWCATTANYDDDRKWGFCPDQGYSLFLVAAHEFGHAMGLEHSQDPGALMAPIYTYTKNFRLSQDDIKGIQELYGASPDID

[3] = logP by potentiometric octanol/water titration; format: physicochemical
[4] = target: Human carbonic anhydrase II (hCAII) (Homo sapiens, UniProt P00918); assay: hCAII inhibition assay; format: biochemical
[5] = target: T2, GLO1 (Homo sapiens, UniProt Q04760); assay: Thermal shift assay; format: binding; details: thermal shift assay (Table S7)
T2 sequence (Q04760 2-184 limits assumed): T1 sequence (Q04760 2-184 limits assumed)

[6] = pKa determination with SiriusT3; format: physicochemical; details: SiriusT3, range pH 2.0 – 12.0, 0.15 M KCl
[7] = 200 μM, SD of triplicate in parentheses

SMILES: Oc1cccc2cccnc12 [8-HQ, 8-Hydroxyquinoline, reference compound]
- inhibition at 200 µM ([1]; read-out: Percent inhibition GLO1): 95%
- IC50 [2]: 166 µM
- inhibition at 200 µM ([2]; read-out: Percent inhibition MMP-2): 57%
- logP ([3]; octanol/water): 1.86
- logD ([3]; octanol/water, pH 7.4): 1.85
- inhibition at 200 µM ([4]; read-out: Percent inhibition hCAII): < 5%
- ΔTM of MBI-bound GLO1 vs native, unbound GLO1 [5]: > 3 °C

SMILES: COCCCn1ccc2cc(-c3cc(-c4ccccc4)cc(=O)n3O)cnc21 [Chugai-3d, reference compound]
- Inhibition of GLO1 by positive control ([1]; 50 μM final concentration): complete inhibition

SMILES: COc1ccc(S(=O)(=O)N(CC(=O)NO)CC(C)C)cc1 [NNGH, reference compound]
- Inhibition of MMP-2 by positive control ([2]; 50 μM final concentration): complete inhibition

Continued, values first:

- Reduction of GLO1 inhibition activity compared to 8-HQ ([1]; 200 μM): > 50%
- Percent inhibition GLO1 [1, 7]: <5%
- Reduction of MMP-2 inhibition activity compared to 8-HQ ([2]; 200 μM): > 50%
- Percent inhibition MMP-2 ([2]; 200 μM): 26 (7) %
SMILES: Oc1ccc2ncccc2c1 [Compound 32]

- Percent inhibition MMP-2 ([2]; 200 μM): 59 (2) %
- IC50 ([2]; read-out: IC50 MMP-2, dose-response 10 μM to 1000 or 1500 μM (Figure S2)): 154 ± 9.8 µM
- Measured logD7.4 ([3]; derived from measured pKa and logP, pH 7.4): 0.99
- Measured logP ([3]; octanol/water, potentiometric, SiriusT3): 1.01
- Percent inhibition hCAII [4, 7]: <5%
- Measured pKa1 (conjugated acid, protonated nitrogen of heteroaromatic ring) [6]: 3.17
- Measured pKa2 (hydroxyl group or its isosteric replacement) [6]: 8.97
SMILES: CS(=O)(=O)Nc1cccc2cccnc12 [MBI 18]
